Values joined by “and” are separate entries in the source; they are usually repeats but may differ in a detail not shown here. Equal entries are not always repeated.
Columns and labels:
Format in all cases: physicochemical
[1] = XPS surface analysis of powders
Excerpt: The aim of the analysis is to identify the presence of magnesium stearate on the surface of a model of a co-micronised active agent. […] The aim was to show the contrast in surface coating efficiency. The model material, representing the micronised active agent particles, was micronised lactose.
The powders have been analyzed using both TOF-SIMS and XPS. TOF-SIMS provides a mass spectrum of the outermost 1 nm of the surface, and is used here to asses whether the magnesium stearate coverage of the lactose is complete or in patches. XPS provides a spectrum representative of the outermost 10 nm of the surface of the sample and is used here in comparison to the TOF-SIMS data to assess the depth of coverage of the magnesium stearate on the lactose surface.
XPS is a surface analytical technique that can quantify the amount of different chemical species in the outermost 10 nm of a surface. In the simplest form of analysis, XPS measures the relative amount of each element present. Quantitative elemental identification can be achieved down to 1 atom in 1000. AU elements present can be detected with the exception of hydrogen. Elemental analysis may be essential in determining the amount of a surface contaminant or to quantify any surface species with a unique elemental type.

[2] = Zeta potential (Zetasizer 3000HS, in cyclohexane); conditions: average of 10 measurements
Procedure: In addition, the powders were studied using the Zetasizer 3000HS instrument (Malvern Instruments Ltd, UK.) Each sample was tested in cyclohexane, and zeta potential measurements were obtained. Zetasizer measures the zeta potential. This is a measure of the electric potential on a particle in suspension in the hydrodynamic plane of shear. The results are summarized as follows: Each result is an average of 10 measurements.

[3] = Density Measurements (poured and tapped density)
Procedure: Approximately 5 g of material was placed in a measuring cylinder and the volume noted. The poured density was calculated. The measuring cylinder was tapped 100 times and the volume noted. Tapping was repeated to constant volume and the tapped density calculated. The equipment used was a […] Volumeter STA […].

[4] = single measurements (Measurement 1, Measurement 2)

Area % of C 1s Spectral Envelope, C—C ([1]; Mean) [%] | Area % of C 1s Spectral Envelope, C—O ([1]; Mean) [%] | Area % of C 1s Spectral Envelope, O—C—O ([1]; Mean) [%] | Area % of C 1s Spectral Envelope, O—C═O ([1]; Mean) [%] | Relative Atomic Percentage Composition, C ([1]; Mean) [%] | Relative Atomic Percentage Composition, Mg ([1]; Mean) [%] | Relative Atomic Percentage Composition, O ([1]; Mean) [%] | Area % of C 1s Spectral Envelope, C—C [1, 4] | Area % of C 1s Spectral Envelope, C—O [1, 4] | Area % of C 1s Spectral Envelope, O—C—O [1, 4] | Area % of C 1s Spectral Envelope, O—C═O [1, 4] | Relative Atomic Percentage Composition, C [1, 4] | Relative Atomic Percentage Composition, O [1, 4] | Zeta Potential [2] [mV] | Number of Taps to Constant Volume ([3]; Stampf Volumeter STA V2003) | Poured Density ([3]; approximately 5 g powder in measuring cylinder) [g/ml] | Tapped Density ([3]; tapped to constant volume) [g/mL] | Compound
5.5 | 64.3 | 20.0 | 8.7 | 54.9 | <0.1 | 45.1 | 6.4% and 4.4% | 70.9% and 57.8% | 18.0% and 22.0% | 4.7% and 12.8% | 54.47% and 55.29% | 45.43% and 44.71% | 35.5 | – | – | – | OC[C@H]1O[C@@H](O[C@H]2[C@H](O)[C@@H](O)C(O)O[C@@H]2CO)[C@H](O)[C@@H](O)[C@H]1O (some centres unmarked) [Lactose]
– | – | – | – | – | – | – | – | – | – | – | – | – | – | 200 | 0.19 | 0.24 | Salbutamol sulphate
